In US11691969B2, “Pyridazinones as PARP7 inhibtors” (Ribon Therapeutics, Inc., priority 2019, dated 2023) one finds IC50 data, which are given here for 19 compounds.

The target of the assay is PARP7 (Homo sapiens (Human), UniProt Q7Z3E1). In words: TR-FRET assay: displacement of biotinylated Probe A from the TIPARP active site (Enzymatic Assay for Inhibition of PARP7). The format is binding. The following applies: TIPARP 6 nM, Probe A 2 nM, 25° C. The procedure, abridged: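 6 nM His-tagged TIPARP and 2 nM biotinylated Probe A preincubated with compound 30 min at 25 °C in HEPES pH 8 buffer, then 4 nM ULight-anti-6×His and 0.25 nM Eu-streptavidin added for 30 min more. 665/615 nm ratio normalised to DMSO and 100 μM reference inhibitor controls; IC50 from 4-parameter fit.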
Sequence of PARP7 (Q7Z3E1 whole entry): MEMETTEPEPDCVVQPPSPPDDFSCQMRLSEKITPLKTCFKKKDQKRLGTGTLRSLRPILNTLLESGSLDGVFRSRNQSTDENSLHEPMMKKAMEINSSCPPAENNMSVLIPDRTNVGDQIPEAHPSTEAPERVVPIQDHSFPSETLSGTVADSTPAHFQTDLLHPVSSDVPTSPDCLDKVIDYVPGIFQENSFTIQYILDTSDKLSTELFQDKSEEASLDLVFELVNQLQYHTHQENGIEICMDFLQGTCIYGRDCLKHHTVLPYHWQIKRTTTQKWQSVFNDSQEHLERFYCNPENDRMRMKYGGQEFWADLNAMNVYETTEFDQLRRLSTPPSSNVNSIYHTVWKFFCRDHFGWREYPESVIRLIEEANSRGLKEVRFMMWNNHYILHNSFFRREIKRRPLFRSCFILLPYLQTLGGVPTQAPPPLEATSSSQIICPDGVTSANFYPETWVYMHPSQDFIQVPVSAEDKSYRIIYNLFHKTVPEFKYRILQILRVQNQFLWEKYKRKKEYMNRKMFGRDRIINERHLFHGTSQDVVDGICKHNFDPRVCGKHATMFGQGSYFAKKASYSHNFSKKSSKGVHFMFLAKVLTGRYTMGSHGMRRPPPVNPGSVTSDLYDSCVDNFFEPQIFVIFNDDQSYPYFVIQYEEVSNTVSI
Background: In TR-FRET formats the signal depends on donor and acceptor labels being close together.

`C[C@@H](CO[C@@H]1CCN(C2CCN(c3cnc(C(F)(F)F)cn3)CC2)C1=O)Oc1cn[nH]c(=O)c1Br` [Example 46B, 4-bromo-5-(((S)-1-(((R)-2-oxo-1-(1-(5-(trifluoromethyl)pyrazin-2-yl)piperidin-4-yl)pyrrolidin-3-yl)oxy)propan-2-yl)oxy)pyridazin-3(2H)-one] came in with a half-maximal inhibitory concentration (IC50) of less than 100 nM. Under `C[C@@H](CO[C@H]1CCN(C2CCN(c3ncc(C(F)(F)F)cn3)CC2)C1=O)Oc1cn[nH]c(=O)c1Cl` [Example 47A, 4-chloro-5-(((S)-1-(((S)-2-oxo-1-(1-(5-(trifluoromethyl)pyrimidin-2-yl)piperidin-4-yl)pyrrolidin-3-yl)oxy)propan-2-yl)oxy)pyridazin-3(2H)-one] stands 100 to 1000 nM.

Regarding `C[C@@H](CO[C@@H]1CCN(C2CCN(c3ncc(C(F)(F)F)cn3)CC2)C1=O)Oc1cn[nH]c(=O)c1Cl` [Example 47B, 4-chloro-5-(((S)-1-(((R)-2-oxo-1-(1-(5-(trifluoromethyl)pyrimidin-2-yl)piperidin-4-yl)pyrrolidin-3-yl)oxy)propan-2-yl)oxy)pyridazin-3(2H)-one], the IC50 was less than 100 nM. On to `C[C@@H](CO[C@@H]1CCN(C2CCN(c3ccc(C#N)cn3)CC2)C1=O)Oc1cn[nH]c(=O)c1Br` [Example 48A], for which the IC50 is less than 100 nM. Under `C[C@@H](CO[C@H]1CCN(C2CCN(c3ccc(C#N)cn3)CC2)C1=O)Oc1cn[nH]c(=O)c1Br` [Example 48B] stands less than 100 nM; under `Cc1cnc(N2CCC(N3CC[C@H](OC[C@H](C)Oc4cn[nH]c(=O)c4C(F)(F)F)C3=O)CC2)nc1` [Example 49A, 5-(((S)-1-(((S)-1-(1-(5-methylpyrimidin-2-yl)piperidin-4-yl)-2-oxopyrrolidin-3-yl)oxy)propan-2-yl)oxy)-4-(trifluoromethyl)pyridazin-3(2H)-one], 100 to 1000 nM; under `Cc1cnc(N2CCC(N3CC[C@@H](OC[C@H](C)Oc4cn[nH]c(=O)c4C(F)(F)F)C3=O)CC2)nc1` [Example 49B, 5-(((S)-1-(((R)-1-(1-(5-methylpyrimidin-2-yl)piperidin-4-yl)-2-oxopyrrolidin-3-yl)oxy)propan-2-yl)oxy)-4-(trifluoromethyl)pyridazin-3(2H)-one], less than 100 nM. `COC[C@@H](CO[C@H]1CCN(C2CCN(c3ccc(C#N)cn3)CC2)C1=O)Oc1cn[nH]c(=O)c1C(F)(F)F` [Example 50A, 6-(4-((S)-3-((S)-3-methoxy-2-((6-oxo-5-(trifluoromethyl)-1,6-dihydropyridazin-4-yl)oxy)propoxy)-2-oxopyrrolidin-1-yl)piperidin-1-yl)nicotinonitrile]: the IC50 was 100 to 1000 nM. Take `COC[C@@H](CO[C@@H]1CCN(C2CCN(c3ccc(C#N)cn3)CC2)C1=O)Oc1cn[nH]c(=O)c1C(F)(F)F` [Example 50B, 6-(4-((R)-3-((S)-3-methoxy-2-((6-oxo-5-(trifluoromethyl)-1,6-dihydropyridazin-4-yl)oxy)propoxy)-2-oxopyrrolidin-1-yl)piperidin-1-yl)nicotinonitrile]: the IC50 is less than 100 nM. Under `COC[C@@H](CO[C@H]1CCN(C2CCN(c3ncc(C(F)(F)F)cn3)CC2)C1=O)Oc1cn[nH]c(=O)c1C(F)(F)F` [Example 51A, 5-(((S)-1-methoxy-3-(((S)-2-oxo-1-(1-(5-(trifluoromethyl)pyrimidin-2-yl)piperidin-4-yl)pyrrolidin-3-yl)oxy)propan-2-yl)oxy)-4-(trifluoromethyl)pyridazin-3(2H)-one] stands 100 to 1000 nM; under `COC[C@@H](CO[C@@H]1CCN(C2CCN(c3ncc(C(F)(F)F)cn3)CC2)C1=O)Oc1cn[nH]c(=O)c1C(F)(F)F` [Example 51B, 5-(((S)-1-methoxy-3-(((R)-2-oxo-1-(1-(5-(trifluoromethyl)pyrimidin-2-yl)piperidin-4-yl)pyrrolidin-3-yl)oxy)propan-2-yl)oxy)-4-(trifluoromethyl)pyridazin-3(2H)-one], less than 100 nM. As for `COC[C@@H](CO[C@H]1CCN(C2CCN(c3ncc(C)cn3)CC2)C1=O)Oc1cn[nH]c(=O)c1C(F)(F)F` [Example 52A, 5-(((S)-1-methoxy-3-(((S)-1-(1-(5-methylpyrimidin-2-yl)piperidin-4-yl)-2-oxopyrrolidin-3-yl)oxy)propan-2-yl)oxy)-4-(trifluoromethyl)pyridazin-3(2H)-one], the figure is 100 to 1000 nM; as for `COC[C@@H](CO[C@@H]1CCN(C2CCN(c3ncc(C)cn3)CC2)C1=O)Oc1cn[nH]c(=O)c1C(F)(F)F` [Example 52B, 5-(((S)-1-methoxy-3-(((R)-1-(1-(5-methylpyrimidin-2-yl)piperidin-4-yl)-2-oxopyrrolidin-3-yl)oxy)propan-2-yl)oxy)-4-(trifluoromethyl)pyridazin-3(2H)-one], less than 100 nM; as for `COC[C@@H](CO[C@@H]1CCN(C2CCN(c3ncc(C)cn3)CC2)C1=O)Nc1cn[nH]c(=O)c1C(F)(F)F` [Example 53, 5-(((S)-1-methoxy-3-(((R)-1-(1-(5-methylpyrimidin-2-yl)piperidin-4-yl)-2-oxopyrrolidin-3-yl)oxy)propan-2-yl)amino)-4-(trifluoromethyl)pyridazin-3(2H)-one], less than 100 nM. Under `COC[C@@H](CO[C@@H]1CCN(C2CCN(c3ncc(C#N)s3)CC2)C1=O)Nc1cn[nH]c(=O)c1C(F)(F)F` [Example 54, 2-(4-((R)-3-((S)-3-methoxy-2-((6-oxo-5-(trifluoromethyl)-1,6-dihydropyridazin-4-yl)amino)propoxy)-2-oxopyrrolidin-1-yl)piperidin-1-yl)thiazole-5-carbonitrile] stands less than 100 nM; under `COC[C@@H](CO[C@H]1CCN(C2CCN(c3ccc(C#N)cn3)CC2)C1=O)Oc1cn[nH]c(=O)c1Br` [Example 55A, 6-(4-((S)-3-((S)-2-((5-bromo-6-oxo-1,6-dihydropyridazin-4-yl)oxy)-3-methoxypropoxy)-2-oxopyrrolidin-1-yl)piperidin-1-yl)nicotinonitrile], no less than 1000 nM. As for `COC[C@@H](CO[C@@H]1CCN(C2CCN(c3ccc(C#N)cn3)CC2)C1=O)Oc1cn[nH]c(=O)c1Br` [Example 55B, 6-(4-((R)-3-((S)-2-((5-bromo-6-oxo-1,6-dihydropyridazin-4-yl)oxy)-3-methoxypropoxy)-2-oxopyrrolidin-1-yl)piperidin-1-yl)nicotinonitrile], the half-inhibitory concentration (IC50) was less than 100 nM. As for `COC[C@@H](CO[C@H]1CCN(C2CCN(c3ncc(C(F)(F)F)cn3)CC2)C1=O)Oc1cn[nH]c(=O)c1Br` [Example 56A, 4-Bromo-5-(((S)-1-methoxy-3-(((S)-2-oxo-1-(1-(5-(trifluoromethyl)pyrimidin-2-yl)piperidin-4-yl)pyrrolidin-3-yl)oxy)propan-2-yl)oxy)pyridazin-3(2H)-one], the figure is no less than 1000 nM; as for `COC[C@@H](CO[C@@H]1CCN(C2CCN(c3ncc(C(F)(F)F)cn3)CC2)C1=O)Oc1cn[nH]c(=O)c1Br` [Example 56B, 4-Bromo-5-(((S)-1-methoxy-3-(((R)-2-oxo-1-(1-(5-(trifluoromethyl)pyrimidin-2-yl)piperidin-4-yl)pyrrolidin-3-yl)oxy)propan-2-yl)oxy)pyridazin-3(2H)-one], less than 100 nM.

What is called IC50 is the point on the concentration scale where inhibition reaches its midpoint.
